For this experiment, the target named is T1, Recombinant human HSP90α (Homo sapiens, UniProt P07900).
T1 construct: host or cells: E. coli
Kind of experiment: radioligand filter binding test with [3H]17AAG (HSP90 inhibition). The settings on record: competition with [3H]17AAG 0.08 μM; HSP90 1.5 μg/assay; 22° C., 30 min. The source says:
Test Method for the Measurement of HSP90 Inhibitors
The binding of geldanamycin or 17- allylamino-17-demethoxygeldanamycin (17AAG) to HSP90 and competitive inhibition thereof can be utilised in order to determine the inhibitory activity of the compounds according to the invention (Carreras et al. 2003, Chiosis et al. 2002).
In the specific case, a radioligand filter binding test is used. The radio-ligand used here is tritium-labelled 17-allylaminogeldanamycin, [3H]17AAG. This filter binding test allows a targeted search for inhibitors which interfere with the ATP binding site.
Recombinant human HSP90α (E. coli expressed, 95% purity);
[3H]17AAG (17-allylaminogeldanamycin, [allylamino-2,3-^3H. Specific activity: 1.11×10^12 Bq/mmol (Moravek, MT-1717);
HEPES filter buffer (50 mM HEPES, pH 7.0, 5 mM MgCl2, BSA 0.01%) Multiscreen FB (1 μm) filter plate (Millipore, MAFBNOB 50).
The 96-well microtitre filter plates are firstly irrigated and coated with 0.1% of polyethylenimine.
The test is carried out under the following conditions:
Reaction temperature 22° C.
Reaction time: 30 min., shaking at 800 rpm
50 mM HEPES HCI, pH 7.0, 5 mM MgCl2, 0.01% (w/v) BSA
At the end of the reaction, the supernatant in the filter plate is removed by suction with the aid of a vacuum manifold (Multiscreen Separation System, Millipore), and the filter is washed twice.
The filter plates are then measured in a beta counter (Microbeta, Wallac) with scintillator (Microscint 20, Packard).
“% of control” is determined from the “counts per minutes” values and the IC-50 value of a compound is calculated therefrom.
`CN(Cc1ccccc1)C(=O)c1cc(-c2ccnn2-c2ccccc2Cl)c(O)cc1O` [Compound A2, 5-[5-(N-Benzyl-N-methylaminocarbonyl)-2,4-dihydroxyphenyl]-1-(2-chlorophenyl)-1H-pyrazole]: the IC50 came to 44 nM.

As to `Cc1ccccc1-n1nccc1-c1cc(C(=O)N(C)Cc2ccc(F)cc2)c(O)cc1O` [Compound A5, 5-{5-[N-(4-Fluorobenzyl)-N-methylaminocarbonyl]-2,4-dihydroxyphenyl}-1-(2-methylphenyl)-1H-pyrazole], the 50% inhibitory concentration (IC50) amounted to 43 nM.

With `Cc1ccccc1-n1nccc1-c1cc(C(=O)N(C)Cc2ccccc2F)c(O)cc1O` [Compound A6, 5-{5-[N-(2-Fluorobenzyl)-N-methylaminocarbonyl]-2,4-dihydroxyphenyl}-1-(2-methylphenyl)-1H-pyrazole], the IC50 turned out to be 54 nM.

`Cc1ccccc1-n1nccc1-c1cc(C(=O)N(C)Cc2cccc(F)c2)c(O)cc1O` [Compound A7, 5-{5-[N-(3-Fluorobenzyl)-N-methylaminocarbonyl]-2,4-dihydroxyphenyl}-1-(2-methylphenyl)-1H-pyrazole]: the IC50 came out at 30 nM.

Regarding `COc1ccccc1CN(C)C(=O)c1cc(-c2ccnn2-c2ccccc2C)c(O)cc1O` [Compound A9, 5-{5-[N-(2-Methoxybenzyl)-N-methylaminocarbonyl]-2,4-dihydroxyphenyl}-1-(2-methylphenyl)-1H-pyrazole], the concentration for half-maximal inhibition (IC50) came to 40 nM.

As for `Cc1ccccc1-n1nccc1-c1cc(C(=O)N(C)Cc2ccccc2)c(O)cc1O` [Compound A17, 5-[5-(N-Benzyl-N-methylaminocarbonyl)-2,4-dihydroxyphenyl]-1-(2-methylphenyl)-1H-pyrazole], the IC50 was found to be 33 nM.

Take `Cc1ccccc1-n1nccc1-c1cc(C(=O)N(C)Cc2cccc(Br)c2)c(O)cc1O` [Compound A20, 5-{5-[N-(3-Bromobenzyl)-N-methylaminocarbonyl]-2,4-dihydroxyphenyl}-1-(2-methylphenyl)-1H-pyrazole]: the IC50 is 31 nM.

On to `Cc1ccccc1CN(C)C(=O)c1cc(-c2ccnn2-c2ccccc2C)c(O)cc1O` [Compound A23, 5-{5-[N-(2-Methylbenzyl)-N-methylaminocarbonyl]-2,4-dihydroxyphenyl}-1-(2-methylphenyl)-1H-pyrazole], for which the IC50 worked out at 27 nM.

As to `Cc1ccc(CN(C)C(=O)c2cc(-c3ccnn3-c3ccccc3C)c(O)cc2O)c(C)c1` [Compound A24, 5-{5-[N-(2,4-Dimethylbenzyl)-N-methylaminocarbonyl]-2,4-dihydroxyphenyl}-1-(2-methylphenyl)-1H-pyrazole], the IC50 came out at 20 nM.

For the compound `Cc1ccccc1-n1nccc1-c1cc(C(=O)N(C)Cc2ccc3c(c2)OCO3)c(O)cc1O` [Compound A25], the concentration for half-maximal inhibition (IC50) worked out at 54 nM.

For `Cc1ccccc1-n1nccc1-c1cc(C(=O)N(C)Cc2c(F)cccc2Cl)c(O)cc1O` [Compound A30, 5-{5-[N-(2-Chloro-6-fluorobenzyl)-N-methylaminocarbonyl]-2,4-dihydroxyphenyl}-1-(2-methylphenyl)-1H-pyrazole], the IC50 was 26 nM.

On to `COc1ccc(CN(C)C(=O)c2cc(-c3ccnn3-c3ccccc3C)c(O)cc2O)c(OC)c1` [Compound A31, 5-{5-[N-(2,4-Dimethoxybenzyl)-N-methylaminocarbonyl]-2,4-dihydroxyphenyl}-1-(2-methylphenyl)-1H-pyrazole], for which the 50% inhibitory concentration (IC50) amounted to 320 nM.

On to `COc1ccc(Cl)cc1CN(C)C(=O)c1cc(-c2ccnn2-c2ccccc2C)c(O)cc1O` [Compound A32, 5-{5-[N-(3-Chloro-6-methoxybenzyl)-N-methylaminocarbonyl]-2,4-dihydroxyphenyl}-1-(2-methylphenyl)-1H-pyrazole], for which the IC50 is 52 nM.

Regarding `Cc1ccccc1-n1nccc1-c1cc(C(=O)N(C)Cc2ccc(Cl)cc2Cl)c(O)cc1O` [Compound A35, 5-{5-[N-(2,4-Dichlorobenzyl)-N-methylaminocarbonyl]-2,4-dihydroxyphenyl}-1-(2-methylphenyl)-1H-pyrazole], the IC50 was 220 nM.

With `CN(Cc1ccccn1)C(=O)c1cc(-c2ccnn2-c2ccccc2Cl)c(O)cc1O` [Compound A60, 5-{5-[N-(Pyridin-2-ylmethyl)-N-methylaminocarbonyl]-2,4-dihydroxyphenyl}-1-(2-chlorophenyl)-1H-pyrazole], the half-maximal inhibitory concentration (IC50) turned out to be 160 nM.

The values above are taken from patent US7906657B2 (Merck Patent Gesellschaft MIT Beschraenkter Haftung, priority 2006, dated 2011).
